IC50 data for 29 compounds are collected here from patent US11547697B2, “Heterocyclic compounds and uses thereof” (MILLENNIUM PHARMACEUTICALS, INC., priority 2009, dated 2023).

Assay [1] has as its target p110γ (Homo sapiens (Human), UniProt P48736). In words: PI 3-Kinase (human) HTRF assay, p110γ. It is filed as biochemical. The note with it: read-out: PI3K γ IC50. On the technique in general: In TR-FRET formats the signal depends on donor and acceptor labels being close together.
Assay [2] addresses recombinant mTOR (Homo sapiens (Human), UniProt P42345). As to the kind of experiment: mTOR inhibition assay (radiometric or LanthaScreen TR-FRET). Particulars: read-out: MTORC IC50. It is filed as biochemical.
Method: The compounds described herein can be tested against recombinant mTOR (Invitrogen) in an assay containing 50 mM HEPES, pH 7.5, 1 mM EGTA, 10 mM MgCl2, 2.5 mM, 0.01% Tween, 10 pM ATP (2.5 μCi of μ-32P-ATP), and 3 μg/mL BSA. R^at recombinant PHAS-1/4EBP1 (Calbiochem; 2 mg/mL) is used as a substrate. Reactions are terminated by spotting onto nitrocellulose, which is washed with 1M NaCl/1% phosphoric acid (approximately 6 times, 5-10 minutes each). Sheets are dried and the transferred radioactivity quantitated by phosphorimaging.
For instance, one can use Invitrogen's LanthaScreen™ Kinase assay to test the inhibitors of mTOR disclosed herein. This assay is a time resolved FRET platform that measures the phosphorylation of GFP labeled 4EBP1 by mTOR kinase. The kinase reaction is performed in a white 384 well microtitre plate. The total reaction volume is 20 ul per well and the reaction buffer composition is 50 mM HEPES pH7.5, 0.01% Polysorbate 20, 1 mM EGTA, 10 mM MnCl2, and 2 mM DTT. In the first step, each well receives 2 ul of test compound in 20% dimethylsulphoxide resulting in a 2% DMSO final concentration. Next, 8 ul of mTOR diluted in reaction buffer is added per well for a 60 ng/ml final concentration. To start the reaction, 10 ul of an ATP/GFP-4EBP1 mixture (diluted in reaction buffer) is added per well for a final concentration of 10 μM ATP and 0.5 μM GFP-4EBP1. The plate is sealed and incubated for 1 hour at room temperature. […] The plate is sealed, incubated for 1 hour at room temperature, and then read on a plate reader set up for LanthaScreen™ TR-FRET. Data is analyzed and IC50s are generated using GraphPad Prism 5.
Assay [3] deals with p110δ/p85α (Homo sapiens (Human), UniProt O00329). As to the kind of experiment: PI 3-Kinase (human) HTRF assay, p110δ/p85α. The note with it: read-out: PI3K δ IC50. It is filed as biochemical.
Method: An exemplary system is PI 3-Kinase (human) HTRF™ Assay from Upstate. […] Briefly, the assay is a time resolved FRET assay that indirectly measures PIP3 product formed by the activity of a PI3-K. The kinase reaction is performed in a microtitre plate (e.g., a 384 well microtitre plate). The total reaction volume is approximately 20 ul per well. In the first step, each well receives 2 ul of test compound in 20% dimethylsulphoxide resulting in a 2% DMSO final concentration. Next, approximately 14.5 ul of a kinase/PIP2 mixture (diluted in 1× reaction buffer) is added per well for a final concentration of 0.25-0.3 ug/ml kinase and 10 μM PIP2. The plate is sealed and incubated for 15 minutes at room temperature. To start the reaction, 3.5 ul of ATP (diluted in 1× reaction buffer) is added per well for a final concentration of 10 μM ATP. The plate is sealed and incubated for 1 hour at room temperature. The reaction is stopped by adding 5 ul of Stop Solution per well and then 5 ul of Detection Mix is added per well. The plate is sealed, incubated for 1 hour at room temperature, and then read on an appropriate plate reader. Data is analyzed and IC50s are generated using GraphPad Prism 5. […] For PI3K α, β, δ, and γ, the nM concentration of inhibitor to reach IC50 is provided.
Assay [4] addresses p110β/p85α (Homo sapiens (Human), UniProt P42338). As to the kind of experiment: PI 3-Kinase (human) HTRF assay, p110β/p85α. It is filed as biochemical. The note with it: read-out: PI3K β IC50.
Assay [5] has as its target p110α/p85α (Homo sapiens (Human), UniProt P42336). In words: PI 3-Kinase (human) HTRF assay, p110α/p85α. Format: biochemical. Particulars: read-out: PI3K α IC50.
Assay [6] has as its system tumor cells with a PI3Kα mutation (e.g., MDA-MB-361 and T47D). As to the kind of experiment: Proliferation of tumor cells with PI3Kα mutation. Format: cell-based. Particulars: Homo sapiens, T47D cells.
[7] abbreviates: read-out: T47D proliferation IC50.

Each structure is given as a SMILES string. Like-named read-outs stand apart in the source and are kept apart here. Where only a bound is given, the exact number is not on record here.

Sequence of p110β/p85α (P42338 whole entry): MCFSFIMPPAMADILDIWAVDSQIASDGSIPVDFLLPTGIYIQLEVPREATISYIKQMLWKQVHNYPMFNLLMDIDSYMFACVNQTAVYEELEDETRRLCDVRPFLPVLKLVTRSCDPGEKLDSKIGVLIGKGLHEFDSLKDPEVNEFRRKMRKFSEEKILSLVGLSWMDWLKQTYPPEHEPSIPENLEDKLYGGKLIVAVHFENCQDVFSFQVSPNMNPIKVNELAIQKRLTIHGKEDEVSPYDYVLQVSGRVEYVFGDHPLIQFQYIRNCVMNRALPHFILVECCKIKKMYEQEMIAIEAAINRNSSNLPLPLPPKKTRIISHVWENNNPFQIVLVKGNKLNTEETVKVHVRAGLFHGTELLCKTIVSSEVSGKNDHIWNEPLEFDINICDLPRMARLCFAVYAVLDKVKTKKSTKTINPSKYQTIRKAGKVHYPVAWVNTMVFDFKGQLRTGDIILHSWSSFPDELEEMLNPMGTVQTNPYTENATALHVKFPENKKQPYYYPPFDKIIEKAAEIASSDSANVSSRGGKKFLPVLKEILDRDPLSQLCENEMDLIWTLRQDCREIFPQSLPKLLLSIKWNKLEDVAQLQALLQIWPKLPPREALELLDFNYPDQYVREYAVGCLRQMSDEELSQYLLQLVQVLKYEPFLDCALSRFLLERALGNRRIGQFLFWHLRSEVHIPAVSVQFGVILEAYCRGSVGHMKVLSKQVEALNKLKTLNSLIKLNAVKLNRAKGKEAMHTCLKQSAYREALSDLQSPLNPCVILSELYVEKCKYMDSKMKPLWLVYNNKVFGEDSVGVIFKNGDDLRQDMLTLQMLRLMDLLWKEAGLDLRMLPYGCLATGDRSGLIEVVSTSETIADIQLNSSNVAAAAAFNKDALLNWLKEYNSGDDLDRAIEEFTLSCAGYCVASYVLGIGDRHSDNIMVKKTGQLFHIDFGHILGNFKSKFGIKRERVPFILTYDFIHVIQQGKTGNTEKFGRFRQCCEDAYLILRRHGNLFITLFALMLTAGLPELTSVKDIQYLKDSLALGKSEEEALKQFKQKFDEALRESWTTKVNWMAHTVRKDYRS
Sequence of p110β/p85α (P27986 whole entry partner): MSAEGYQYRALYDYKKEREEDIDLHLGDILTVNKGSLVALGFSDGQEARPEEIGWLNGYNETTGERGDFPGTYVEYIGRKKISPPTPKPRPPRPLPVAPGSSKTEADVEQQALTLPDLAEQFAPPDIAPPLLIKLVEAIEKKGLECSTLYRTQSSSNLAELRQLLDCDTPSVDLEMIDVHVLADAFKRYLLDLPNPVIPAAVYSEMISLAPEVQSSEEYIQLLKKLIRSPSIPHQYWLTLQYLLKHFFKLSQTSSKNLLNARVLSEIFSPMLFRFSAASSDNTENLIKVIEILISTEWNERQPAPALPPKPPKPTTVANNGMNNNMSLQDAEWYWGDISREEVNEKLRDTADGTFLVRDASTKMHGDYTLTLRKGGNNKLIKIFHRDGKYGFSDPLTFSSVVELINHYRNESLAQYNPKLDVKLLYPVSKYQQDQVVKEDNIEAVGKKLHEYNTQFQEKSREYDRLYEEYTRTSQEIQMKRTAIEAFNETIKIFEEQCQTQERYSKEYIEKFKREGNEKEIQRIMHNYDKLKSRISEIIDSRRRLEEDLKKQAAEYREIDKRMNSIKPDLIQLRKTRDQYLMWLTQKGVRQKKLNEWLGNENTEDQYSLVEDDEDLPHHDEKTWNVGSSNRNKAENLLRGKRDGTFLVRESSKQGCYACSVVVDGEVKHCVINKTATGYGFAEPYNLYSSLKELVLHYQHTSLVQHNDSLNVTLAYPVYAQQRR
Sequence of recombinant mTOR (P42345 1360-2549): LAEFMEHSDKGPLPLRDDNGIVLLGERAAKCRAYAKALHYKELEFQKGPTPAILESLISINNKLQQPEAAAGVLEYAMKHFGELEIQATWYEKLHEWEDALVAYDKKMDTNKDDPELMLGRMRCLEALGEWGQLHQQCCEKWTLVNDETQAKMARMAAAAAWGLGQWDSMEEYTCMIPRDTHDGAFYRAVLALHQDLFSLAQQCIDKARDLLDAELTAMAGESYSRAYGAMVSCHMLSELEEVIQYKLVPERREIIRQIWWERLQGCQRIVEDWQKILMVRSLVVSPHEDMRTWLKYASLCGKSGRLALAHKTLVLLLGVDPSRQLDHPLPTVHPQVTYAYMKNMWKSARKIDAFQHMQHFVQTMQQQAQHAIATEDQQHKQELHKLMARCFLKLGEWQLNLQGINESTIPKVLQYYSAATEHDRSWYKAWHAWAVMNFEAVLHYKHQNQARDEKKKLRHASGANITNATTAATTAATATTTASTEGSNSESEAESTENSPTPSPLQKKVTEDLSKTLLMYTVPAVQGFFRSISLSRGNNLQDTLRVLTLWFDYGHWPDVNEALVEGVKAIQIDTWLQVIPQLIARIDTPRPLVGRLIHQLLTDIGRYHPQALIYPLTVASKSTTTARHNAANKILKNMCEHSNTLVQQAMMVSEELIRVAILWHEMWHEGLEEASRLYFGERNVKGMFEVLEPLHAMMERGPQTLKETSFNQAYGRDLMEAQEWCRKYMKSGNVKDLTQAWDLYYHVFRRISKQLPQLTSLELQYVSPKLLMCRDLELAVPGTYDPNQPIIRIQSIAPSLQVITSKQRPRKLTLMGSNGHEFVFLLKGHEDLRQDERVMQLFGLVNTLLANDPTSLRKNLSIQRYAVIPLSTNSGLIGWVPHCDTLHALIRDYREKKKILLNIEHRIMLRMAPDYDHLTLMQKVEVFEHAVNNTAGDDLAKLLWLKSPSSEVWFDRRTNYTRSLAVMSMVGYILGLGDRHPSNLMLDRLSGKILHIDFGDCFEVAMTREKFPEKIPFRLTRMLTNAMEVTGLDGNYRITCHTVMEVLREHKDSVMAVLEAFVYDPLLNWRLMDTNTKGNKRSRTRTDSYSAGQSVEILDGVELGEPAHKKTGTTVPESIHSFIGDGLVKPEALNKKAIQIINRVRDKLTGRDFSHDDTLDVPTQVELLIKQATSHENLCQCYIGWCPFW
Sequence of p110δ/p85α (O00329 whole entry): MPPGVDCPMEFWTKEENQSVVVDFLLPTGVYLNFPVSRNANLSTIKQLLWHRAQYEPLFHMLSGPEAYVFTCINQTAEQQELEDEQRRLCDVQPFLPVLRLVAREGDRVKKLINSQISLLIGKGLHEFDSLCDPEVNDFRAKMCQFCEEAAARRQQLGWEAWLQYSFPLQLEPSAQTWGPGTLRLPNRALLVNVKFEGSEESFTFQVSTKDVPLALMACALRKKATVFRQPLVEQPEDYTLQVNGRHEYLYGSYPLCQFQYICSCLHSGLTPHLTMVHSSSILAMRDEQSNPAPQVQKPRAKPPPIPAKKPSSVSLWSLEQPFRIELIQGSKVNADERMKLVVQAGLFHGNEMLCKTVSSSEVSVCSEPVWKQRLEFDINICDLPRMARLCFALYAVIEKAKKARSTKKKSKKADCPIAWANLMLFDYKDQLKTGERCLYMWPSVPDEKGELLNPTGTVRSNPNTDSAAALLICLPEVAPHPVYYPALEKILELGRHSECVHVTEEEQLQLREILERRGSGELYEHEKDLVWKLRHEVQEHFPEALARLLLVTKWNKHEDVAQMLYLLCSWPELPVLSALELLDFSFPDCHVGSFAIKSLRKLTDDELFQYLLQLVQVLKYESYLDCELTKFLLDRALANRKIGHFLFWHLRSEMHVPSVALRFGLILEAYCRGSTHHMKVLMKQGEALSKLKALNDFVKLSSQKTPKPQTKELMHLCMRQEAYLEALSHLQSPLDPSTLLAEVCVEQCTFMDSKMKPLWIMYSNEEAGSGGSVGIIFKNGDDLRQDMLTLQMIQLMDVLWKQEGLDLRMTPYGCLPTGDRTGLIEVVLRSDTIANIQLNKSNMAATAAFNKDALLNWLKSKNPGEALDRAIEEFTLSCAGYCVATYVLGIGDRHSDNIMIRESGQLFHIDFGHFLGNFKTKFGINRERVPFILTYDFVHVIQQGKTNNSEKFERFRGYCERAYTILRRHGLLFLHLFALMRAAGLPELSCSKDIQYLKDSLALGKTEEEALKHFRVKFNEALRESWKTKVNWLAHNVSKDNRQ
Sequence of p110δ/p85α (P27986 whole entry partner): as the sequence (P27986 whole entry partner) above

For the compound `CS(=O)(=O)N1CCN(C2CCN(c3cnc4ccc(-c5ccc6oc(N)nc6c5)cc4n3)CC2)CC1` [compound 377], the IC50 in assay [1] (in vitro) is less than 1 µM; in assay [2] (in vitro) it was less than 10 µM; in assay [3] (in vitro), less than 10 µM; in assay [4] (in vitro), less than 10 µM; in assay [5] (in vitro), less than 0.1 µM.
Regarding `Nc1nc2ccc(-c3ccc4nccc(-c5ccncc5)c4c3)cc2s1` [compound 3], the IC50 in assay [1] was less than 1 µM; in assay [2], less than 1 µM; in assay [3], less than 1 µM; in assay [5], less than 0.1 µM.
With `N#Cc1cnc2ccc(-c3ccc4oc(N)nc4c3)cc2c1` [compound 93], the figures for the IC50 in assay [1], in assay [2] and in assay [5] were less than 1 µM, less than 10 µM and less than 1 µM, respectively.
As for `COC(=O)N1CCC(n2ncc3c(N4CCOCC4)nc(-c4ccc5oc(N)nc5c4)nc32)CC1` [compound 330], the IC50 is less than 1 µM in assay [2] (in vitro), less than 10 µM in assay [4] (in vitro) and less than 1 µM in assay [5] (in vitro).
Regarding `Nc1nc2cc(-c3ccc4ncc(N5CCNC(C(F)(F)F)C5)nc4c3)ccc2o1` (centres unmarked) [compound 384], the IC50 in assay [1] (in vitro) was less than 1 µM; in assay [2] (in vitro), less than 1 µM; in assay [3] (in vitro), less than 10 µM; in assay [4] (in vitro), less than 1 µM; in assay [5] (in vitro), less than 0.1 µM.
Consider `Nc1nc2cc(-c3nc(N4CCOCC4)c4cnn(C5CCNCC5)c4n3)ccc2o1` [compound 348], for which the IC50 in assay [1] (in vitro) is less than 1 µM; in assay [2] (in vitro), less than 1 µM; in assay [3] (in vitro), less than 10 µM; in assay [4] (in vitro), less than 0.1 µM; in assay [5] (in vitro), less than 1 µM.
For `Cn1cc(-c2ccnc3ccc(-c4ccc5oc(N)nc5c4)cc23)cn1` [compound 26], the IC50 in assay [1] was less than 0.1 µM; in assay [2], less than 1 µM; in assay [3], less than 0.1 µM; in assay [5], less than 0.1 µM.
As for `Nc1nc2cccc(-c3ccc4nccc(-c5ccncc5)c4c3)c2o1` [compound 15], the IC50 in assay [1] was less than 1 µM; in assay [2] it was less than 0.1 µM; in assay [3], less than 1 µM; in assay [4], less than 0.1 µM; in assay [5], less than 0.1 µM.
Consider `CN1CCN(C(=O)c2cnc3ccc(-c4ccc5oc(N)nc5c4)cn23)CC1` [compound 44], for which the IC50 in assay [1] was less than 10 µM; in assay [2], less than 10 µM; in assay [3] it was less than 10 µM; in assay [5], less than 0.1 µM.
Turning to `Nc1nc2cc(-c3ccc4nccn4c3)ccc2o1` [compound 40], the IC50 in assay [1], in assay [2] and in assay [5] was less than 10 µM in each case.
For the compound `CC(=O)Nc1ncc(-c2ccc3oc(N)nc3c2)s1` [compound 235], the IC50 in assay [1] (in vitro), in assay [2] (in vitro), in assay [3] (in vitro) and in assay [5] (in vitro) was less than 10 µM in each case.
As to `Nc1nc2cc(-c3ccc4ncc(N5CC(n6cccn6)C5)nc4c3)ccc2o1` [compound 318], the IC50 in assay [1] (in vitro) is less than 1 µM; in assay [2] (in vitro), less than 1 µM; in assay [4] (in vitro), less than 10 µM; in assay [5] (in vitro), less than 0.1 µM.
For the compound `CC(C)Oc1nc(-c2ccc3oc(N)nc3c2)cnc1N` [compound 237], the IC50 in assay [1] (in vitro) was less than 10 µM; in assay [2] (in vitro), less than 1 µM; in assay [4] (in vitro), less than 10 µM; in assay [5] (in vitro), less than 10 µM.
Take `Nc1nc2cc(-c3ccc4ncc(-c5ccnc(N6CCOCC6)c5)n4c3)ccc2o1` [compound 52]: the IC50 in assay [1] is less than 0.1 µM; in assay [2] it was less than 10 µM; in assay [3], less than 0.1 µM; in assay [5], less than 0.1 µM.
On to `Nc1nc2cc(-c3ccc4nc(N)oc4c3)ccc2o1` [compound 241], for which the IC50 is less than 0.1 µM in assay [1] (in vitro), less than 10 µM in assay [2] (in vitro), less than 1 µM in assay [3] (in vitro) and less than 1 µM in assay [5] (in vitro).
Consider `Nc1ccc2cc(-c3ccc4nccc(-c5ccncc5)c4c3)ccc2n1` [compound 5], for which the IC50 was less than 1 µM in assay [1], less than 1 µM in assay [2], less than 10 µM in assay [3] and less than 1 µM in assay [5].
On to `Nc1nc2cc(-c3ccc4ncc(=O)[nH]c4c3)ccc2o1` [compound 72], for which the IC50 in assay [1] was less than 0.1 µM; in assay [2] it was less than 1 µM; in assay [4], less than 1 µM; in assay [5], less than 0.1 µM.
`N#Cc1cnc2ccc(-c3ccc4oc(N)nc4c3)cc2c1Cl` [compound 77]: the IC50 in assay [2] was less than 1 µM.
With `N#Cc1cnc2ccc(-c3ccc4oc(N)nc4c3)cc2c1-c1ccncc1` [compound 46], the IC50 in assay [1], in assay [2], in assay [3] and in assay [5] was less than 0.1 µM in each case.
Consider `Nc1nc2cc(-c3ccc4oc(N)nc4c3)ccc2o1` [compound 240], for which the IC50 in assay [1] (in vitro) was less than 0.1 µM; in assay [2] (in vitro), less than 10 µM; in assay [3] (in vitro) it was less than 10 µM; in assay [5] (in vitro), less than 1 µM.
As for `NC(=O)[C@H]1CCCN1C(=O)C1CN(c2cnc3ccc(-c4ccc5oc(N)nc5c4)cc3n2)C1` [compound 284], the IC50 in assay [1] (in vitro) was less than 1 µM; in assay [6] (setting [7]), less than 10 µM; in assay [3] (in vitro), less than 10 µM; in assay [4] (in vitro), less than 10 µM; in assay [5] (in vitro) it was less than 0.1 µM.
Take `Nc1nc2cc(-c3ccn4ncc(-c5ccncc5)c4c3)ccc2o1` [compound 356]: the IC50 in assay [1] (in vitro) is less than 0.1 µM; in assay [6] (setting [7]), less than 1 µM; in assay [3] (in vitro) it was less than 0.1 µM; in assay [4] (in vitro) it was less than 0.1 µM; in assay [5] (in vitro), less than 0.1 µM.
In the case of `Nc1nc2cc(-c3ccc4ncc(NCCN5CCOCC5)nc4c3)ccc2o1` [compound 133], the IC50 was less than 1 µM in assay [1]; less than 10 µM in assay [6] (read-out: T47D proliferation); less than 1 µM in assay [3]; less than 1 µM in assay [4]; less than 0.1 µM in assay [5].
Turning to `CCn1cnc2ccc(-c3ccc4oc(N)nc4c3)cc2c1=O` [compound 183], the IC50 in assay [1] is less than 0.1 µM; in assay [6] (read-out: T47D proliferation), less than 10 µM; in assay [3], less than 10 µM; in assay [4], less than 10 µM; in assay [5], less than 0.1 µM.
For `CN1CCN([C@@H]2CCN(c3cnc4ccc(-c5ccc6oc(N)nc6c5)cc4n3)C2)CC1` [compound 379], the IC50 in assay [2] (in vitro) is less than 10 µM; in assay [3] (in vitro), less than 10 µM; in assay [4] (in vitro), less than 1 µM; in assay [5] (in vitro), less than 0.1 µM.
Regarding `Nc1nc2cc(-c3ccc4ncc(N5CCC(N6CCOCC6)CC5)nc4c3)ccc2o1` [compound 171], the IC50 in assay [1] was less than 1 µM; in assay [6] (read-out: T47D proliferation), less than 1 µM; in assay [3], less than 1 µM; in assay [4], less than 1 µM; in assay [5] it was less than 0.1 µM.
As for `CN1CCN(c2cnc3ccc(-c4ccc5oc(N)nc5c4)cc3n2)CC1` [compound 65], the IC50 was less than 1 µM in assay [1]; less than 10 µM in assay [6] (read-out: T47D proliferation); less than 10 µM in assay [3]; less than 0.1 µM in assay [4]; less than 0.1 µM in assay [5].
As to `CC1CN(c2cnc3ccc(-c4ccc5oc(N)nc5c4)cc3n2)CCO1` (centres unmarked) [compound 173], the IC50 was less than 0.1 µM in assay [1]; less than 10 µM in assay [6] (read-out: T47D proliferation); less than 10 µM in assay [3]; less than 1 µM in assay [4]; less than 0.1 µM in assay [5].
Regarding `Nc1nc2cc(-c3ccc4ncc(N5CC(C(=O)N6CCN(CC7CC7)CC6)C5)nc4c3)ccc2o1` [compound 287], the IC50 in assay [1] (in vitro) was less than 1 µM; in assay [6] (setting [7]), less than 10 µM; in assay [3] (in vitro) it was less than 1 µM; in assay [4] (in vitro) it was less than 10 µM; in assay [5] (in vitro), less than 0.1 µM.
